From the NIST ThermoML archive (doi:10.1021/je0340248)
± gives the expanded uncertainty stated by the source.

Details: 101.33 kPa, Liquid

SMILES	mass density (298.15 K) [kg/m3]	speed of sound (298.15 K) [m/s]	viscosity (298.15 K) [mPa·s]	mass density (303.15 K) [kg/m3]	mass density (308.15 K) [kg/m3]	speed of sound (308.15 K) [m/s]	viscosity (308.15 K) [mPa·s]	mass density (313.15 K) [kg/m3]
CCCCOC(C)=O [butyl ethanoate]	876.19 ± 0.94	1190 ± 2	0.674 ± 0.012	871.27 ± 0.96	865.43 ± 0.98	1150 ± 2	0.594 ± 0.011	860.48 ± 1
OCCOCCO [diethylene glycol]	1113.51 ± 0.32	1580 ± 2	30.01 ± 0.42	1109.56 ± 0.31	1106.22 ± 0.3	1550 ± 2	16.97 ± 0.33	1103.02 ± 0.3
CCOC(C)=O [ethyl acetate]	894.55 ± 0.88	1138 ± 2	0.428 ± 0.008	888.48 ± 0.9	882.5 ± 0.92	1095 ± 2	0.387 ± 0.008	875.97 ± 0.94
COC(C)=O [methyl ethanoate]	926.8 ± 0.78	1150 ± 2	0.384 ± 0.008	919.7 ± 0.8	915.22 ± 0.81	1103 ± 2	0.351 ± 0.007	908.33 ± 0.84
OCCOCCOCCO [triethylene glycol]	1119.59 ± 0.75	1612 ± 2	34.4 ± 0.46	1115.88 ± 0.69	1111.96 ± 0.63	1586 ± 2	21.31 ± 0.35	1109.53 ± 0.6
